Target: T1, 15-hydroxyprostaglandin dehydrogenase [NAD(+)] (Homo sapiens, UniProt P15428)
T1 sequence (P15428 whole entry): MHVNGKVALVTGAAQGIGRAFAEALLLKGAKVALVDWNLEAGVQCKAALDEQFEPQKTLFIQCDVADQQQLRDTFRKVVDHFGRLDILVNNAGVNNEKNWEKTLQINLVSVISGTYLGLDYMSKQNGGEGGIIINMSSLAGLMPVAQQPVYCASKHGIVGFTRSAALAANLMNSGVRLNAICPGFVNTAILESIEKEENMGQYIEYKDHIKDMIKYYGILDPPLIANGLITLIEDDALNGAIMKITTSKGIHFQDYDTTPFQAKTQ
Assay: Inhibition of human 15-PGDH expressed in Escherichia coli using PGE2 as substrate and NAD+ as coenzyme assessed as formation of NADH by spectrophotometric analysis

- IC50: 51 nM
SMILES: O=C1N=C(O)SC1=Cc1ccc(OCCC2CCCCC2)cc1

Reference: BindingDB's records for doi:10.1021/jm200390u (Chosun University, 2011)
